Test results published in patent publication US7402557B2, “Combined treatment with keratinocyte growth factor and epidermal growth factor inhibitor” (priority 2000, dated 2008).

Columns and labels:
[1] = tested on: hyper-phosphorylated retinoblastoma protein (ppRB); conditions: cited from earlier work
[2] = tested on: normal keratinocytes and EGFR over-expressing tumor cells; conditions: cited from earlier work
[3] = tested on: p27^kip1/waf1; conditions: cited from earlier work
[4] = tested on: p27^kip1/waf1; experiment: Immunoblot of p27^kip1/waf1 protein level in NHEK lysates; assay type: cell-based, human; conditions: 24 hr
Experimental: (§1) The protective effect of KGF on keratinocytes was measured in two types of assays, the first to determine its protective effect on cell cycle phase distribution against a small molecule EGFR inhibitor, and the second to determine its protective effect against ppRB depletion and p27^kip1/waf1 upregulation caused by the EGFR inhibitor. The effect of KGF on cell cycle phase distribution was measured by bivariate analysis of bromodeoxyuridine incorporation and propidium iodide uptake by […] using flow cytometry. The protective effect of KGF against ppRB depletion and p27^kip1/waf1 upregulation was measured by immunoblotting of lysates from treated and control […] cells with antibodies specific for RB and p27^kip1/waf1, respectively. The methods are described in detail below.
(§2) All experiments were carried out with normal human neonatal epidermal keratinoctyes, NHEK (Clonetics, San Diego, Calif.). Cells were maintained in Keratinocyte Growth Medium, KGM-2 (Clonetics). Human recombinant KGF expressed in E. coli as a 19 kDa protein was purchased from Sigma Chemical Co. (St. Louis, Mo.).
(§3) NHEK cells were seeded in 6-well plates and grown until semi-confluent in KGM-2. […] Total protein concentration of the lysates was determined using the BCA protein assay (Pierce Chemicals, Rockford, Ill.). […]

[5] = tested on: hyperphosphorylated retinoblastoma protein (ppRB); experiment: Immunoblot of hyperphosphorylated RB (ppRB) in NHEK lysates; assay type: cell-based, human; conditions: 24 hr
Experimental: as §1, §2, §3

[6] = tested on: normal human neonatal epidermal keratinoctyes, NHEK; experiment: Flow cytometric measurement of cell cycle arrest (BrdU incorporation / propidium iodide); assay type: cell-based; conditions: for % G1 / % G2 / % S: 24 hr, NHEK; for effect on cell cycle phase distribution (in words): keratinocytes treated for 24 hours
Experimental: as §1, §2
NHEK cells were seeded in 60-mm dishes in KGM-2. When the cells were semiconfluent, the medium was replaced with fresh medium containing the test agents: vehicle (0.125% DMSO); vehicle+20 ng/ml KGF; vehicle+0.3 μM CP-358, 774-01+/−20 ng/ml KGF; or vehicle+1 μM CP-358, 774-01+/−20 ng/ml KGF. The cells were incubated at 37° C. in a 5% CO2, humidified atmosphere. After 24 hr, bromodeoxyuridine (BrdU) was added to the medium at a final concentration of 10 μM for 30 min. The cells were then harvested using 0.25% trypsin/1 mM EDTA and counted using a Coulter counter. Aliquots of 2×10^6 cells were collected by centrifugation at 220×g for 5 min, washed in 2 ml phosphate buffered saline (PBS) containing 2.5% fetal calf serum, resuspended in 0.2 ml PBS, and fixed by the addition of 5 ml 70% ethanol at −20° C. After a 30 min incubation on ice, the cells were collected by centrifugation at 500×g for 5 min and resuspended in 25 μl PBS. One ml of 0.2 mg/ml pepsin in 2 N HCI was added and the cells were incubated for 30 min at rm temp. Cells were collected by centrifugation at 1500×g for 5 min and washed with 1 ml 0.1 M sodium borate, pH 8.5. Cells were pelleted at 1500×g for 5 min, resuspended in 1 ml of fluorescein isothiocyanate (FITC)-conjugated anti-BrdU (Becton Dickinson, San Jose, Calif.) diluted fifty-fold in PBS containing 0.5% Tween 20 and 1% bovine serum albumin, and incubated at ambient temperature in the dark for 30 min. After a final wash with PBS with 0.5% Tween 20 and 1% BSA, the cells were resuspended in PBS containing 10 μg/ml propidium iodide and 10 μg/ml RNase, filtered through a 35 µm mesh and analyzed on a FACSCalibur flow cytometer (Becton Dickinson) equipped with an argon laser with an emission wavelength of 488 nm. FITC fluorescence data was acquired at 515-545 nm, and propidium iodide fluorescence data was acquired at […]. A minimum of 20,000 cells was analyzed per sample. Data was analyzed using CellQuest software (Becton-Dickinson) and the percent of cells in each phase (G1, S, G2) of the cell cycle was calculated.

[7] = tested on: FGFR1iiib receptor; conditions: cited from earlier work

## C#Cc1cccc(Nc2ncnc3cc(OCCOC)c(OCCOC)cc23)c1 [CP-358,774, [6,7-bis(2-methoxy-ethoxy)-quinazolin-4-yl]-(3-ethynylphenyl)amine]
[1]
  effect on hyper-phosphorylated retinoblastoma protein (ppRB): causes depletion
[2]
  cell cycle arrest (accumulation of cells in G1 phase): causes cell cycle arrest
[3]
  effect on cyclin-dependent kinase inhibitor p27^kip1/waf1: accumulation

## C#Cc1cccc(Nc2ncnc3cc(OCCOC)c(OCCOC)cc23)c1.Cl [Compound A]
[4]; 0.3 μM Compound A
  induction of p27^kip1/waf1 protein levels: 3.9 fold
[4]; 1 μM Compound A
  induction of p27^kip1/waf1: 5.2 fold
[5]; 0.3 μM Compound A
  ppRB signal on RB immunoblot: dramatically reduced
[5]; 1 μM Compound A
  ppRB band on RB immunoblot: completely abolished
[6]; 0.3 μM Compound A
  % G1: 75%
  % G2: 11%
  % S: 13%
[6]; 1 μM Compound A
  % G1: 85%
  % G2: 10%
  % S: 6.0%
[6]
  effect on cell cycle phase distribution (in words): concentration dependent accumulation of cells in the G1 phase of the cell cycle and a corresponding decrease in the S-phase fraction

B1: KGF-2: keratinocyte growth factor family member, also known as FGF-10 (protein, UniProt O15520 38-208, looked up)
Fibroblast growth factor 10: QALGQDMVSPEATNSSSSSFSSPSSAGRHVRSYNHLQGDVRWRKLFSFTKYFLKIEKNGKVSGTKKENCPYSILEITSVEIGVVAVKAINSNYYLAMNKKGKLYGSKEFNNDCKLKERIEENGYNTYASFNWQHNGRQMYVALNGKGAPRRGQKTRRKNTSAHFLPMVVHS
[7]
  binding to FGFR1iiib receptor: high affinity

B2: KGF: Human recombinant KGF expressed in E. coli as a 19 kDa protein, purchased from Sigma Chemical Co. (protein, UniProt P21781 32-194, looked up)
Fibroblast growth factor 7: CNDMTPEQMATNVNCSSPERHTRSYDYMEGGDIRVRRLFCRTQWYLRIDKRGKVKGTQEMKNNYNIMEIRTVAVGIVAIKGVESEFYLAMNKEGKLYAKKECNEDCNFKELILENHYNTYASAKWTHNGGEMFVALNQKGIPVRGKKTKKEQKTAHFLPMAIT
[6]; 20 ng/ml KGF alone
  % G1: 52%
  % G2: 13%
  % S: 34%
[6]
  effect on cell cycle phase distribution (in words): no significant effect

B3: KGF-1: keratinocyte growth factor family member, also known as FGF-7 (protein, UniProt P21781 32-194, looked up)
Fibroblast growth factor 7: B2 Fibroblast growth factor 7
[7]
  binding to FGFR1iiib receptor: high affinity
